Measurements from ChEMBL document CHEMBL1212738, “Phenotypic and genotypic characterization of Enterobacteriaceae with decreased susceptibility to carbapenems: results from large hospital-based surveillance studies in China” (2010).
In brackets after ≈: the same amount, converted by molar mass.

Tests used:
Klebsiella pneumoniae [1] = assay: Antimicrobial activity against Klebsiella pneumoniae FZ47T expressing IMP-8, TEM-1, CTX-M-14, qnrB2, aac(6')-Ib by CLSI method; type: functional
Citrobacter freundii [2] = assay: Antimicrobial activity against Citrobacter freundii RJ78 expressing CMY-2, qnrA1, aac(6')-Ib-cr, ompC by CLSI method; type: functional
Enterobacter cloacae [3] = assay: Antimicrobial activity against carbapenem-resistant Enterobacter cloacae SZ93 deficient in ompC by CLSI method; type: functional
Escherichia coli [4] = assay: Antimicrobial activity against carbapenem-resistant Escherichia coli PU96 deficient in TEM-1, CTX-M-14, CMY-2, ompC/F by CLSI method; type: functional
Klebsiella aerogenes = assay: Antimicrobial activity against carbapenem-resistant Enterobacter aerogenes WH85 deficient in TEM-1, CTX-M-3, ompC/F by CLSI method; type: functional
Escherichia coli [5] = assay: Antimicrobial activity against carbapenem-resistant Escherichia coli PU60 deficient in TEM-1, CMY-2, ompC/F by CLSI method; type: functional
Klebsiella pneumoniae [6] = assay: Antimicrobial activity against carbapenem-resistant Klebsiella pneumoniae PU105 deficient TEM-1, SHV-12, CTX-M-14, DHA-1, qnrB10/B4-like, aac(6')-Ib-cr, ompK35/36 by CLSI method; type: functional
Klebsiella pneumoniae [7] = assay: Antimicrobial activity against carbapenem-resistant Klebsiella pneumoniae ZJ18 deficient in KPC-2, SHV-28, DHA-1, ompK35 by CLSI method; type: functional
Klebsiella pneumoniae [8] = assay: Antimicrobial activity against carbapenem-resistant Klebsiella pneumoniae PU104 deficient in TEM-1, SHV-11, CTX-M-15, qnrS1, ompK35/36 by CLSI method; type: functional
Klebsiella pneumoniae [9] = assay: Antimicrobial activity against carbapenem-resistant Klebsiella pneumoniae ZJ68 deficient in CTX-M-15, ompK35/36 by CLSI method
Klebsiella pneumoniae [10] = assay: Antimicrobial activity against Klebsiella pneumoniae GZ64 expressing IMP-4, ompK35/36 by CLSI method; type: functional
Citrobacter freundii [11] = assay: Antimicrobial activity against Citrobacter freundii SZ63T expressing IMP-4, qnrS1by CLSI method; type: functional
Klebsiella pneumoniae [12] = assay: Antimicrobial activity against carbapenem-resistant Klebsiella pneumoniae PU4 deficient in SHV-1, DHA-1, ompK35/36 by CLSI method; type: functional
Escherichia coli [13] = assay: Antimicrobial activity against carbapenem-resistant Escherichia coli PU102 deficient in TEM-1, CTX-M-14, CMY-2, aac(6')-Ib, ompC DEc, ompF by CLSI method; type: functional
Klebsiella pneumoniae [14] = assay: Antimicrobial activity against Klebsiella pneumoniae WH97 expressing SHV-33, aac(6')-Ib, ompK35 DE by CLSI method; type: functional
Escherichia coli [15] = assay: Antimicrobial activity against Escherichia coli C600 transconjugant GZ66T expressing SHV-11, DHA-1 by CLSI method
Escherichia coli [16] = assay: Antimicrobial activity against Escherichia coli C600 transconjugant WH76T expressing IMP-4, TEM-1, CTX-M-3, qnrS1 by CLSI method
Klebsiella pneumoniae [17] = assay: Antimicrobial activity against Klebsiella pneumoniae WH76 expressing IMP-4, TEM-1, SHV-14, CTX-M-3, qnrS1 by CLSI method; type: functional
Enterobacter cloacae [18] = assay: Antimicrobial activity against carbapenem-resistant Enterobacter cloacae RJ94 deficient in IMP-4, TEM-1, CTX-M-3, ompC by CLSI method; type: functional
Escherichia coli [19] = assay: Antimicrobial activity against Escherichia coli PU60T expressing CMY-2 by CLSI method; type: functional
Klebsiella pneumoniae [20] = assay: Antimicrobial activity against carbapenem-resistant Klebsiella pneumoniae GZ83 deficient in SHV-11, CTX-M-14, ompK35/36 by CLSI method; type: functional
Klebsiella pneumoniae [21] = assay: Antimicrobial activity against Klebsiella pneumoniae ZJ70T expressing KPC-2 by CLSI method; type: functional
Escherichia coli [22] = assay: Antimicrobial activity against Escherichia coli ZJ87 expressing KPC-2, TEM-1, ompC by CLSI method; type: functional
Enterobacter cloacae [23] = assay: Antimicrobial activity against carbapenem-resistant Enterobacter cloacae GX56 deficient in ompC and expressing low levels of ompF DE by CLSI method; type: functional
Klebsiella pneumoniae [24] = assay: Antimicrobial activity against carbapenem-resistant Klebsiella pneumoniae PU5 deficient in SHV-12, DHA-1, aac(6')-Ib-cr, ompK35/36 by CLSI method; type: functional
Klebsiella pneumoniae [25] = assay: Antimicrobial activity against carbapenem-resistant Klebsiella pneumoniae CY75 deficient in SHV-11, DHA-1, ompK35/36 by CLSI method; type: functional
Klebsiella pneumoniae [26] = assay: Antimicrobial activity against carbapenem-resistant Klebsiella pneumoniae SX67 deficient in SHV-2, CTX-M-14, DHA-1, qnrB6/S1, aac(6')-Ib-cr, ompK35/36 by CLSI method; type: functional
Enterobacter cloacae [27] = assay: Antimicrobial activity against carbapenem-resistant Enterobacter cloacae NJ90 deficient in CTX-M-14, ompC/F by CLSI method; type: functional
Escherichia coli [28] = assay: Antimicrobial activity against Escherichia coli PU101T expressing CMY-2 by CLSI method; type: functional
Enterobacter cloacae [29] = assay: Antimicrobial activity against carbapenem-resistant Enterobacter cloacae GX24 deficient in TEM-1, DHA-1, aac(6')-Ib, ompC by CLSI method; type: functional
Escherichia coli [30] = assay: Antimicrobial activity against Escherichia coli HX74T expressing CTX-M-3 by CLSI method; type: functional
Escherichia coli [31] = assay: Antimicrobial activity against Escherichia coli C600 by CLSI method; type: functional

Row | Structure (SMILES) | MIC (Klebsiella pneumoniae [1]) | MIC (Citrobacter freundii [2]) | MIC (Enterobacter cloacae [3]) | MIC (Escherichia coli [4]) | MIC (Klebsiella aerogenes) | MIC (Escherichia coli [5]) | MIC (Klebsiella pneumoniae [6]) | MIC (Klebsiella pneumoniae [7]) | MIC (Klebsiella pneumoniae [8]) | MIC (Klebsiella pneumoniae [9]) | MIC (Klebsiella pneumoniae [10]) | MIC (Citrobacter freundii [11]) | MIC (Klebsiella pneumoniae [12]) | MIC (Escherichia coli [13]) | MIC (Klebsiella pneumoniae [14]) | MIC (Escherichia coli [15]) | MIC (Escherichia coli [16]) | MIC (Klebsiella pneumoniae [17]) | MIC (Enterobacter cloacae [18]) | MIC (Escherichia coli [19]) | other results
1 | C[C@@H](O)[C@H]1C(=O)N2C(C(=O)O)=C(SCCNC=N)C[C@H]12 [IMIPENEM ANHYDROUS] | 4 µg/mL (≈ 13.4 µM) | 8 µg/mL (≈ 26.7 µM) | 4 µg/mL (≈ 13.4 µM) | 32 µg/mL (≈ 107 µM) | 8 µg/mL (≈ 26.7 µM) | 32 µg/mL (≈ 107 µM) | 32 µg/mL (≈ 107 µM) | 16 µg/mL (≈ 53.4 µM) | 2 µg/mL (≈ 6.68 µM) | 4 µg/mL (≈ 13.4 µM) | 16 µg/mL (≈ 53.4 µM) | 4 µg/mL (≈ 13.4 µM) | 16 µg/mL (≈ 53.4 µM) | 16 µg/mL (≈ 53.4 µM) | 2 µg/mL (≈ 6.68 µM) | 0.5 µg/mL (≈ 1.67 µM) | 4 µg/mL (≈ 13.4 µM) | 2 µg/mL (≈ 6.68 µM) | 8 µg/mL (≈ 26.7 µM) | 0.5 µg/mL (≈ 1.67 µM) | MIC (Klebsiella pneumoniae [20]): 32 µg/mL (≈ 107 µM); MIC (Klebsiella pneumoniae [21]): 16 µg/mL (≈ 53.4 µM); MIC (Escherichia coli [22]): 8 µg/mL (≈ 26.7 µM); MIC (Enterobacter cloacae [23]): 4 µg/mL (≈ 13.4 µM); MIC (Klebsiella pneumoniae [24]): 16 µg/mL (≈ 53.4 µM); MIC (Klebsiella pneumoniae [25]): 32 µg/mL (≈ 107 µM); MIC (Klebsiella pneumoniae [26]): 4 µg/mL (≈ 13.4 µM); MIC (Enterobacter cloacae [27]): 16 µg/mL (≈ 53.4 µM); MIC (Escherichia coli [28]): 0.25 µg/mL (≈ 0.835 µM); MIC (Enterobacter cloacae [29]): 4 µg/mL (≈ 13.4 µM)
2 | CC(C)(O/N=C(\C(=O)N[C@@H]1C(=O)N2C(C(=O)[O-])=C(C[n+]3ccccc3)CS[C@H]12)c1csc(N)n1)C(=O)O [CEFTAZIDIME] | > 256 µg/mL | 128 µg/mL (≈ 234 µM) | 0.5 µg/mL (≈ 0.915 µM) | > 256 µg/mL | 32 µg/mL (≈ 58.5 µM) | 256 µg/mL (≈ 468 µM) | > 256 µg/mL | 64 µg/mL (≈ 117 µM) | > 256 µg/mL | 256 µg/mL (≈ 468 µM) | > 256 µg/mL | > 256 µg/mL | 64 µg/mL (≈ 117 µM) | 64 µg/mL (≈ 117 µM) | > 256 µg/mL | 128 µg/mL (≈ 234 µM) | > 256 µg/mL | 256 µg/mL (≈ 468 µM) | > 256 µg/mL | 64 µg/mL (≈ 117 µM) | MIC (Escherichia coli [30]): 256 µg/mL (≈ 468 µM); MIC (Klebsiella pneumoniae [20]): > 256 µg/mL; MIC (Klebsiella pneumoniae [21]): 32 µg/mL (≈ 58.5 µM); MIC (Escherichia coli [31]): 0.5 µg/mL (≈ 0.915 µM); MIC (Escherichia coli [22]): 32 µg/mL (≈ 58.5 µM); MIC (Enterobacter cloacae [23]): 256 µg/mL (≈ 468 µM); MIC (Klebsiella pneumoniae [24]): 256 µg/mL (≈ 468 µM); MIC (Klebsiella pneumoniae [25]): 256 µg/mL (≈ 468 µM); MIC (Klebsiella pneumoniae [26]): > 256 µg/mL; MIC (Enterobacter cloacae [27]): > 256 µg/mL; MIC (Escherichia coli [28]): > 256 µg/mL; MIC (Enterobacter cloacae [29]): > 256 µg/mL
3 | CO[C@@]1(NC(=O)Cc2cccs2)C(=O)N2C(C(=O)O)=C(COC(N)=O)CS[C@@H]21 [CEFOXITIN] | > 256 µg/mL | > 256 µg/mL | > 256 µg/mL | > 256 µg/mL | 256 µg/mL (≈ 599 µM) | > 256 µg/mL | > 256 µg/mL | > 256 µg/mL | 256 µg/mL (≈ 599 µM) | 32 µg/mL (≈ 74.9 µM) | > 256 µg/mL | > 256 µg/mL | > 256 µg/mL | > 256 µg/mL | > 256 µg/mL | 128 µg/mL (≈ 299 µM) | > 256 µg/mL | > 256 µg/mL | > 256 µg/mL | 128 µg/mL (≈ 299 µM) | MIC (Escherichia coli [30]): 16 µg/mL (≈ 37.4 µM); MIC (Klebsiella pneumoniae [20]): > 256 µg/mL; MIC (Klebsiella pneumoniae [21]): 32 µg/mL (≈ 74.9 µM); MIC (Escherichia coli [31]): 16 µg/mL (≈ 37.4 µM); MIC (Escherichia coli [22]): 64 µg/mL (≈ 150 µM); MIC (Enterobacter cloacae [23]): > 256 µg/mL; MIC (Klebsiella pneumoniae [24]): > 256 µg/mL; MIC (Klebsiella pneumoniae [25]): > 256 µg/mL; MIC (Klebsiella pneumoniae [26]): > 256 µg/mL; MIC (Enterobacter cloacae [27]): > 256 µg/mL; MIC (Escherichia coli [28]): > 256 µg/mL; MIC (Enterobacter cloacae [29]): > 256 µg/mL
4 | C[C@@H](O)[C@H]1C(=O)N2C(C(=O)O)=C(S[C@@H]3CN[C@H](C(=O)Nc4cccc(C(=O)O)c4)C3)[C@H](C)[C@H]12 | 4 µg/mL (≈ 8.41 µM) | 8 µg/mL (≈ 16.8 µM) | 0.064 µg/mL (≈ 0.135 µM) | 128 µg/mL (≈ 269 µM) | 16 µg/mL (≈ 33.6 µM) | 64 µg/mL (≈ 135 µM) | 128 µg/mL (≈ 269 µM) | 16 µg/mL (≈ 33.6 µM) | 64 µg/mL (≈ 135 µM) | 64 µg/mL (≈ 135 µM) | 32 µg/mL (≈ 67.3 µM) | 4 µg/mL (≈ 8.41 µM) | 32 µg/mL (≈ 67.3 µM) | 64 µg/mL (≈ 135 µM) | 4 µg/mL (≈ 8.41 µM) | 0.008 µg/mL (≈ 0.0168 µM) | 2 µg/mL (≈ 4.21 µM) | 2 µg/mL (≈ 4.21 µM) | 32 µg/mL (≈ 67.3 µM) | 0.064 µg/mL (≈ 0.135 µM) | MIC (Escherichia coli [30]): 0.064 µg/mL (≈ 0.135 µM); MIC (Klebsiella pneumoniae [20]): 128 µg/mL (≈ 269 µM); MIC (Klebsiella pneumoniae [21]): 16 µg/mL (≈ 33.6 µM); MIC (Escherichia coli [31]): 0.008 µg/mL (≈ 0.0168 µM); MIC (Escherichia coli [22]): 16 µg/mL (≈ 33.6 µM); MIC (Enterobacter cloacae [23]): 32 µg/mL (≈ 67.3 µM); MIC (Klebsiella pneumoniae [24]): 64 µg/mL (≈ 135 µM); MIC (Klebsiella pneumoniae [25]): 64 µg/mL (≈ 135 µM); MIC (Klebsiella pneumoniae [26]): 32 µg/mL (≈ 67.3 µM); MIC (Enterobacter cloacae [27]): 128 µg/mL (≈ 269 µM); MIC (Escherichia coli [28]): 0.25 µg/mL (≈ 0.526 µM); MIC (Enterobacter cloacae [29]): 16 µg/mL (≈ 33.6 µM)
